Experimental data: PubChem BioAssay AID330 (DTP/NCI, 2004)
Toxic doses and inconclusive results are not listed. Rule for the calls: active = survival T/C of 150% or more; inactive = T/C below 125% in these data.

System: P388 leukemia ip, CD2F1 mice, survival T/C
Assay: NCI In Vivo Anticancer Drug Screen. Data for tumor model P388 Leukemia (intraperitoneal) in CD2F1 (CDF1) mice
Conditions: endpoint: median survival time, higher = longer survival
Method in brief: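 Mice carrying the transplanted tumor received test compound or vehicle. Survival was recorded in each group, and the value is the treated-group measurement divided by that of the vehicle-treated control group.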

[1] = dose: 50.0 mg/kg/injection, schedule: Q01DX005 (ip), vehicle: saline with Tween-80
[2] = dose: 100.0 mg/kg/injection, schedule: Q01DX005 (ip), vehicle: saline with Tween-80
[3] = dose: 200.0 mg/kg/injection, schedule: Q01DX005 (ip), vehicle: saline with Tween-80
[4] = dose: 50.0 mg/kg/injection, schedule: Q01DX005 (ip), vehicle: saline
[5] = dose: 100.0 mg/kg/injection, schedule: Q01DX005 (ip), vehicle: saline

Measured: T/C

CC1(c2ccccc2)OC1(C)c1ccccc1 (stereo not given)
inactive: dose: 50.0 mg/kg/injection, schedule: Q01DX009 (ip), vehicle: Klucel (hydroxypropylcellulose) (HPC) 103 % of control | dose: 100.0 mg/kg/injection, schedule: Q01DX009 (ip), vehicle: Klucel (hydroxypropylcellulose) (HPC) 103 % of control | dose: 200.0 mg/kg/injection, schedule: Q01DX009 (ip), vehicle: Klucel (hydroxypropylcellulose) (HPC) 103 % of control

N#Cc1ccc(-c2nc3ncnc(N)c3[nH]2)cc1
inactive: dose: 60.0 mg/kg/injection, schedule: Q01DX005 (ip), vehicle: Klucel (hydroxypropylcellulose) (HPC) 92 % of control | dose: 120.0 mg/kg/injection, schedule: Q01DX005 (ip), vehicle: Klucel (hydroxypropylcellulose) (HPC) 90 % of control | dose: 240.0 mg/kg/injection, schedule: Q01DX005 (ip), vehicle: Klucel (hydroxypropylcellulose) (HPC) 91 % of control

CCCOc1cc2c(cc1C(C)c1ccccc1)OCO2 (stereo not given)
inactive: [1] 101 % of control | [2] 95 % of control | [3] 96 % of control

COc1ccc2c(c1)C(=O)/C(=N\O)C2
inactive: dose: 50.0 mg/kg/injection, schedule: Q01DX005 (ip), vehicle: Klucel (hydroxypropylcellulose) (HPC) 92 % of control | dose: 100.0 mg/kg/injection, schedule: Q01DX005 (ip), vehicle: Klucel (hydroxypropylcellulose) (HPC) 101 % of control | dose: 200.0 mg/kg/injection, schedule: Q01DX005 (ip), vehicle: Klucel (hydroxypropylcellulose) (HPC) 92 % of control

CC1(C)CC2(OC2c2ccccc2[N+](=O)[O-])C(=O)c2ccccc21 (stereo not given)
inactive: dose: 100.0 mg/kg/injection, schedule: Q01DX009 (ip), vehicle: saline with Tween-80 100 % of control | dose: 200.0 mg/kg/injection, schedule: Q01DX009 (ip), vehicle: saline with Tween-80 100 % of control | dose: 400.0 mg/kg/injection, schedule: Q01DX009 (ip), vehicle: saline with Tween-80 100 % of control

CCCCCN(C)c1ncnc2[nH]ncc12
inactive: dose: 25.0 mg/kg/injection, schedule: Q01DX005 (ip), vehicle: saline 94 % of control | [4] 95 % of control | [5] 100 % of control

c1ccc(CN2COc3c(ccc4ccccc34)C2)cc1
inactive: dose: 100.0 mg/kg/injection, schedule: Q04DX003 (ip), vehicle: Klucel (hydroxypropylcellulose) (HPC) 97 % of control | dose: 200.0 mg/kg/injection, schedule: Q04DX003 (ip), vehicle: Klucel (hydroxypropylcellulose) (HPC) 102 % of control | dose: 400.0 mg/kg/injection, schedule: Q04DX003 (ip), vehicle: Klucel (hydroxypropylcellulose) (HPC) 96 % of control

O=C1OCCSCCOCCSCCOC(=O)c2cncc1c2
inactive: dose: 100.0 mg/kg/injection, schedule: Q01DX001 (ip), vehicle: Klucel (hydroxypropylcellulose) (HPC) 99 % of control | dose: 200.0 mg/kg/injection, schedule: Q01DX001 (ip), vehicle: Klucel (hydroxypropylcellulose) (HPC) 113 % of control | dose: 400.0 mg/kg/injection, schedule: Q01DX001 (ip), vehicle: Klucel (hydroxypropylcellulose) (HPC) 109 % of control

C[CH2][Ge]([c]1ccccc1)[c]1ccccc1.C[CH2][Ge]([c]1ccccc1)[c]1ccccc1.c1cc[c]([Ge]([O][Ge]([c]2ccccc2)[c]2ccccc2)[c]2ccccc2)cc1
inactive: [4] 91 % of control | [5] 91 % of control | dose: 200.0 mg/kg/injection, schedule: Q01DX005 (ip), vehicle: saline 91 % of control

Cc1cc(=O)oc2cc(O)c(C(=O)/C=C/N(C)C)cc12
inactive: dose: 60.0 mg/kg/injection, schedule: Q01DX005 (ip), vehicle: saline with Tween-80 92 % of control | dose: 120.0 mg/kg/injection, schedule: Q01DX005 (ip), vehicle: saline with Tween-80 95 % of control | dose: 240.0 mg/kg/injection, schedule: Q01DX005 (ip), vehicle: saline with Tween-80 86 % of control

Nc1ccccc1C(=O)Nc1ccc(Cl)cc1Cl
inactive: [1] 104 % of control | [2] 92 % of control | [3] 92 % of control

COc1c2c(cc3ccc(=O)oc13)C=CC(C)(C)O2
inactive: dose: 9.75 mg/kg/injection, schedule: Q01DX005 (ip), vehicle: Klucel (hydroxypropylcellulose) (HPC) 100 % of control | dose: 19.5 mg/kg/injection, schedule: Q01DX005 (ip), vehicle: Klucel (hydroxypropylcellulose) (HPC) 89 % of control | dose: 39.0 mg/kg/injection, schedule: Q01DX005 (ip), vehicle: Klucel (hydroxypropylcellulose) (HPC) 100 % of control | dose: 78.0 mg/kg/injection, schedule: Q01DX005 (ip), vehicle: Klucel (hydroxypropylcellulose) (HPC) 89 % of control

C/C=C(\CC[Se]c1ccccc1)C(=O)OC
inactive: dose: 50.0 mg/kg/injection, schedule: Q01DX009 (ip), vehicle: distilled water + Tween-80 + alcohol 108 % of control | dose: 100.0 mg/kg/injection, schedule: Q01DX009 (ip), vehicle: distilled water + Tween-80 + alcohol 98 % of control | dose: 200.0 mg/kg/injection, schedule: Q01DX009 (ip), vehicle: distilled water + Tween-80 + alcohol 106 % of control
